Experimental data as given in patent US5369111A, “Modulator agent and use thereof” (University of Vermont, priority 1992, dated 1994).

Tests used:
[1] = tested on: S180 MDR cell strains A3 and A10; assay: Modulation of acquired drug resistance in the S180 MDR cell strains A3 and A10; format: cell-based, murine; conditions: VBL, VCR and ADM
Procedure, shortened: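 MDR S180 lines in tubes (1×10^5 cells/ml) exposed to graded modulator added minutes before ADM, VBL or VCR at parental IC70s (2.0×10^-7 M ADM, 1.5×10^-8 M VBL, 4.5×10^-8 M VCR). Growth counted electronically at 72 h. Reversing concentration = minimum modulator giving 70% inhibition; duplicates, two experiments.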

P388 R cells = assay: Sensitization of P388 R cells to antitumorous agents; format: cell-based, mouse
Procedure: The sensitization of C-20'-deoxy C-20'-deethyl vincovaline (D-DEV) has been tested on sensitive and resistants P388 cell lines originating from mouse lympnoma.
The resistance to anticancerous drug has been induced on DBA2 mouses bearing P388 cells ascites and maintained by treatment with adryamycin.
The P388 R cells are incubated at 37° C. during 24 hours with constant subtoxic concentrations of antitumoral drugs and increasing concentrations of modulators from 1 to 100 μM.

With CC[C@]12C=CCN3CC[C@@]4(c5cc([C@]6(C(=O)OC)C[C@H]7CCCN(CCc8c6[nH]c6ccccc86)C7)c(OC)cc5N(C)[C@H]4[C@@](O)(C(=O)OC)[C@@H]1OC(C)=O)[C@@H]32 [analog n° 352, C-20'-deoxy-20'-deethyl-C-14', 16'-epi-VBL] as the compound, how does the “range of resistance levels over which parental sensitivity was restored” value [1] read?
The value was 3-17 fold.

And the “percentage of cellular survival” value (P388 R cells; modulator 30 μM, ADM 1.72 μM, 1440 min)?
Its value is 50%.

And the “modulator effect on P388 R cells with ADM (in words)” value (P388 R cells; modulator 100 μM, ADM 0.17 μM)?
Its value is “no effect”.
